In PubChem BioAssay AID2060903 (Molecular Pharmacology Branch, DTP, NCI, 2025):

System: 377384-186-R-J1-PDC complex spheroid viability
Test: Anticancer human tumor 377384-186-R-J1-PDC patient-derived pancreatic carcinoma cell line growth inhibition [RAS]
Conditions: for IC50: curve of first compound; for viability, T/C: stronger effect = lower value
Method in brief: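 Multi-cell-type spheroids: tumor cells plus HUVEC endothelial cells and mesenchymal stem cells. RAS-pathway inhibitors were combined with targeted agents, each dosed in half-log steps down from clinical Cmax, or from 10 microM when Cmax was unknown.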

[1] = second compound 0.00316 µM, first compound 0.0316 µM
[2] = second compound 0.00316 µM, first compound 0.1 µM
[3] = second compound 0.00316 µM, first compound 0.316 µM
[4] = second compound 0.00316 µM, first compound 1 µM
[5] = second compound 0.01 µM, first compound 0.0316 µM
[6] = second compound 0.01 µM, first compound 0.1 µM
[7] = second compound 0.01 µM, first compound 0.316 µM
[8] = second compound 0.01 µM, first compound 1 µM
[9] = second compound 0.0316 µM, first compound 0.0316 µM
[10] = second compound 0.0316 µM, first compound 0.1 µM
[11] = second compound 0.0316 µM, first compound 0.316 µM
[12] = second compound 0.0316 µM, first compound 1 µM
[13] = second compound 0.1 µM, first compound 0.0316 µM
[14] = second compound 0.1 µM, first compound 0.1 µM
[15] = second compound 0.1 µM, first compound 0.316 µM
[16] = second compound 0.1 µM, first compound 1 µM
[17] = second compound 0.316 µM, first compound 0.0316 µM
[18] = second compound 0.316 µM, first compound 0.1 µM
[19] = second compound 0.316 µM, first compound 0.316 µM
[20] = second compound 0.316 µM, first compound 1 µM
[21] = second compound 1 µM, first compound 0.0316 µM
[22] = second compound 1 µM, first compound 0.1 µM
[23] = second compound 1 µM, first compound 0.316 µM
[24] = second compound 1 µM, first compound 1 µM
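Note: spheroids exposed to compounds for seven days before readout.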

Structure (SMILES): NC1c2ccccc2OC12CCN(c1cnc3c(N4CCCc5ncccc54)n[nH]c3n1)CC2 (centres undefined) + C=CC(=O)N1CCN(c2nc(OCC3CCCN3C)nc3c(F)c(-c4nc(N)cc(C)c4C(F)(F)F)c(Cl)cc23)C(C)C1
- IC50 (second compound 0.00316 µM): > 10000 nM
- IC50 (second compound 0.01 µM): > 10000 nM
- IC50 (second compound 0.0316 µM): > 10000 nM
- IC50 (second compound 0.1 µM): > 10000 nM
- IC50 (second compound 0.316 µM): > 10000 nM
- IC50 (second compound 1 µM): > 10000 nM
- viability, T/C [1]: 82.9%
- viability, T/C [2]: 77%
- viability, T/C [3]: 66.5%
- viability, T/C [4]: 69.1%
- viability, T/C (second compound 0.00316 µM, first compound 3.16 µM): 75.6%
- viability, T/C (second compound 0.00316 µM, first compound 10 µM): 68.4%
- viability, T/C [5]: 86.9%
- viability, T/C [6]: 63.1%
- viability, T/C [7]: 76.8%
- viability, T/C [8]: 71.9%
- viability, T/C (second compound 0.01 µM, first compound 3.16 µM): 65.8%
- viability, T/C (second compound 0.01 µM, first compound 10 µM): 63.8%
- viability, T/C [9]: 83.5%
- viability, T/C [10]: 68.8%
- viability, T/C [11]: 76%
- viability, T/C [12]: 65.7%
- viability, T/C (second compound 0.0316 µM, first compound 3.16 µM): 57.7%
- viability, T/C (second compound 0.0316 µM, first compound 10 µM): 66%
- viability, T/C [13]: 90.7%
- viability, T/C [14]: 70.1%
- viability, T/C [15]: 75.9%
- viability, T/C [16]: 64.5%
- viability, T/C (second compound 0.1 µM, first compound 3.16 µM): 72.1%
- viability, T/C (second compound 0.1 µM, first compound 10 µM): 70.7%
- viability, T/C [17]: 81.2%
- viability, T/C [18]: 70.8%
- viability, T/C [19]: 78.9%
- viability, T/C [20]: 70.3%
- viability, T/C (second compound 0.316 µM, first compound 3.16 µM): 71.8%
- viability, T/C (second compound 0.316 µM, first compound 10 µM): 71%
- viability, T/C [21]: 79.3%
- viability, T/C [22]: 73.3%
- viability, T/C [23]: 77.9%
- viability, T/C [24]: 73.1%
- viability, T/C (second compound 1 µM, first compound 3.16 µM): 76.3%
- viability, T/C (second compound 1 µM, first compound 10 µM): 68.4%

Structure (SMILES): Nc1ccn(C2OC(CO)C(O)C2(F)F)c(=O)n1 (centres undefined) + C=CC(=O)N1CCN(c2nc(OCC3CCCN3C)nc3c(F)c(-c4nc(N)cc(C)c4C(F)(F)F)c(Cl)cc23)C(C)C1
- IC50 (second compound 0.00316 µM): 6.73 nM
- IC50 (second compound 0.01 µM): 7.09 nM
- IC50 (second compound 0.0316 µM): 6.58 nM
- IC50 (second compound 0.1 µM): 5.53 nM
- IC50 (second compound 0.316 µM): 7.31 nM
- IC50 (second compound 1 µM): 6.18 nM
- viability, T/C (second compound 0.00316 µM, first compound 0.00316 µM): 76.9%
- viability, T/C (second compound 0.00316 µM, first compound 0.01 µM): 35.9%
- viability, T/C [1]: 11.5%
- viability, T/C [2]: 4.72%
- viability, T/C [3]: 3.54%
- viability, T/C [4]: 2.18%
- viability, T/C (second compound 0.01 µM, first compound 0.00316 µM): 81.7%
- viability, T/C (second compound 0.01 µM, first compound 0.01 µM): 36.5%
- viability, T/C [5]: 13.4%
- viability, T/C [6]: 4.91%
- viability, T/C [7]: 3.97%
- viability, T/C [8]: 3.71%
- viability, T/C (second compound 0.0316 µM, first compound 0.00316 µM): 74%
- viability, T/C (second compound 0.0316 µM, first compound 0.01 µM): 36.3%
- viability, T/C [9]: 9.49%
- viability, T/C [10]: 4.74%
- viability, T/C [11]: 3.22%
- viability, T/C [12]: 2.97%
- viability, T/C (second compound 0.1 µM, first compound 0.00316 µM): 60.4%
- viability, T/C (second compound 0.1 µM, first compound 0.01 µM): 38.9%
- viability, T/C [13]: 12%
- viability, T/C [14]: 3.63%
- viability, T/C [15]: 3.27%
- viability, T/C [16]: 2.81%
- viability, T/C (second compound 0.316 µM, first compound 0.00316 µM): 80.5%
- viability, T/C (second compound 0.316 µM, first compound 0.01 µM): 38.5%
- viability, T/C [17]: 13.1%
- viability, T/C [18]: 4.24%
- viability, T/C [19]: 3.5%
- viability, T/C [20]: 3.38%
- viability, T/C (second compound 1 µM, first compound 0.00316 µM): 65.3%
- viability, T/C (second compound 1 µM, first compound 0.01 µM): 38.8%
- viability, T/C [21]: 16.7%
- viability, T/C [22]: 5.53%
- viability, T/C [23]: 4.43%
- viability, T/C [24]: 4.1%
